According to patent US20190070170A1, “METHOD OF S[…]-1” (Macau University of Science and Technology, priority 2017, published 2019):

Tests used:
[1] = biological target: T1, NF-κB (mPGES-1 promoter) (Rattus norvegicus, UniProt Q7TQN4); assay: ChIP assay: NF-κB DNA binding to mPGES-1 promoter in LPS-stimulated rat peritoneal macrophages; assay type: cell-based; conditions: 640 μM SIN 1 h, 1 μg/ml LPS 30 min
T1 construct: Peritoneal macrophages of SD rats were isolated; endogenous in cells; host or cells: primary peritoneal macrophages of SD rats
Description: Rat peritoneal macrophages were pretreated with 640 μM SIN (1 h) and stimulated with 1 μg/ml LPS (30 min) before fixation at room temperature for 10 min with 1% formaldehyde. Fixation was terminated by adding glycine (to 0.125 M) with an additional incubation of 5 min, then the cells were washed twice with ice-cold PBS and harvested by scraping and centrifugation (1500 rpm for 10 min at 4° C.). Cell lysis was performed using ChIP kit from abcam (Cambridge, UK) according to the manufacturer's instructions. Briefly, cell pellets were resuspended in 1 ml Buffer B by pipetting up and down several times in a microcentrifuge tube and incubated at room temperature for 10 min. After centrifugation at 5000 rpm, the pellet was collected and resuspended in ice cold Buffer C and incubated on ice for 10 min, followed by centrifugation (5,000 rpm for 10 min at 4° C.). The pellet was mixed with 100 μl Buffer D containing protease inhibitors, incubated on ice for 10 min and sonicated for 30 cycles in a Bioruptor UCD-300 sonicator (power on high, 30 s on, 30 s off per cycle), yielding DNA fragments of 150-200 bps (the size of sonicated chromatin was checked through running 2% agarose gel). Beads were blocked overnight in PBS with 0.5% BSA and then added to the samples. […]

[2] = test system: COX-1; assay: COX-1 protein expression in LPS-activated rat peritoneal macrophages (western blotting); assay type: cell-based; conditions: SIN or DEX 1 h, LPS 24 h
Description: Sprague-Dawley (SD) rats from the University of Hong Kong were housed in cages with free access to food and water. Peritoneal macrophages of SD rats were isolated as described in Liu J. et al., Pharmacological research 2016, 111:303-315. Briefly, untreated rats were sacrificed and after laparotomy, about 50 ml cold sterile Hank's balanced salt solution (HBSS) was used to lavage the peritoneal cavity at twice, and then the peritoneal lavage fluid was collected and centrifuged at 1500 rpm for 10 min. The cell pellets was suspended at a density 1.5×10^6 cells/ml in pre-hearted DMEM medium with 10% heat-inactivated FBS, penicillin G (100 units/ml), streptomycin ([…]), and L-glutamine (2 mM), followed by seeding in 6-well plates at a density of 4.5×10^6 cells and incubation for 2 h. Then the medium were discarded to remove the non-adherent cells. The adherent cells were further washed for two times with pre-heated DMEM medium to remove floating cells. Next, cells were pre-treated with various concentration of SIN for 1 h, followed by stimulation with LPS (1 μg/ml).
Whole-cell and nuclear proteins were obtained using RIPA lysis buffer (CST, Boston, Mass., USA) and Nuclear and Cytoplasmic Extraction Reagents kit from Thermo Scientific (Asheville, N.C., USA), respectively. […] The levels of protein expression were measured using Odyssey v3.0 software from Li-COR (Lincoln, Nebr., USA).

T1 sequence (Q7TQN4 whole entry): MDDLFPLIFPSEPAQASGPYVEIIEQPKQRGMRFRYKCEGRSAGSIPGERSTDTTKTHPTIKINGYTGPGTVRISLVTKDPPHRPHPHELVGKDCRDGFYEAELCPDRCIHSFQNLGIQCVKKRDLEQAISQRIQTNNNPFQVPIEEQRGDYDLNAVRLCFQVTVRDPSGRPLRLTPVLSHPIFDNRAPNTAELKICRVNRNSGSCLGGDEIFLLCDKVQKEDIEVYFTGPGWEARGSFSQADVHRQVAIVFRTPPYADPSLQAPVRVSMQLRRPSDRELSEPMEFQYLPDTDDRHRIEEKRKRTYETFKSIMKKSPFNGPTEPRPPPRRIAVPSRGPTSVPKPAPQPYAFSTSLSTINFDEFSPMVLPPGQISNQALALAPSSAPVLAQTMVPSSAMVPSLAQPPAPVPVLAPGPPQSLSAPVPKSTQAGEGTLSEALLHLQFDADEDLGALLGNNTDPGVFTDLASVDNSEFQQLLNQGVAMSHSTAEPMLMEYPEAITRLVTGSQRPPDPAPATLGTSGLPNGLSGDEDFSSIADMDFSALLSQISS

Question: COC1=C[C@@H]2[C@@H]3Cc4ccc(OC)c(O)c4[C@]2(CCN3C)CC1=O [SIN, sinomenine] was tested. Which “DNA binding of NF-κB to the promoter of mPGES-1” value [1] did it give?
Answer: selectively inhibited

Question: And the COX-1 protein expression [2]?
Answer: did not suppress
